Measured values from US7807701B2, “Dibenzylamine compounds and pharmaceutical use thereof” (Japan Tobacco Inc., priority 2002, dated 2010).
Where a name gives a salt, the structure may show the parent alone.

Target: T1, CETP (Homo sapiens, UniProt P11597)
T1 construct: The donor lipoprotein obtained above was added to plasma of healthy subject; from tissue; host or cells: whole plasma of healthy subject
T1 sequence (P11597 18-493): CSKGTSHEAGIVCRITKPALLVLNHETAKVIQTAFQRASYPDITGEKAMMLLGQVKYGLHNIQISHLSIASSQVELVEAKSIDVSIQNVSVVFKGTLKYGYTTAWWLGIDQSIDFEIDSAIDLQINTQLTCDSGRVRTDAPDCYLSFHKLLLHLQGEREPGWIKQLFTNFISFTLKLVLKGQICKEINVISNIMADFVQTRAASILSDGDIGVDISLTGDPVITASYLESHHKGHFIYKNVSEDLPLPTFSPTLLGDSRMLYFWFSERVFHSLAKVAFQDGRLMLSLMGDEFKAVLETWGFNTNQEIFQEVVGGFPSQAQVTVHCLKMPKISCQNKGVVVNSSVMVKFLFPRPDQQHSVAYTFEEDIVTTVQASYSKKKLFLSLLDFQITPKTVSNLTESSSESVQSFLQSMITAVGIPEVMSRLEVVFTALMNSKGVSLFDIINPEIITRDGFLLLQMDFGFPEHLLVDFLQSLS
Assay: Inhibitory effect in vitro on CETP activity in total plasma
Assay type: biochemical
Conditions: plasma of healthy subject with [3H]CE-HDL3, 37° C., 4 hr; average values
Description: Potassium bromide (KBr) was added to plasma (40 mL) of healthy subject and the mixture was adjusted to have a specific density d=1.125 g/mL. The mixture was subjected to density gradient centrifugation (227,000×g, 4° C., 17 hr) and a fraction showing a specific density of d>1.125 g/mL (HDL3 fraction) was harvested. The obtained fraction was dialyzed against PBS solution [10 mmol/L Na2HPO4; 10 mmol/L NaH2PO4; 0.15 mol/L NaCl; […] (pH 7.4)]. Then, tritium-labeled cholesterol (37 MBq) was dissolved in 95% ethanol, gradually added to the above-mentioned HDL3 fraction with stirring and incubated at 37° C. for 18 hr. [By this operation, tritium-labeled cholesterol was esterified by the action of lecithin acyl transferase (LCAT) present on the HDL3 surface and taken up into HDL3 as tritium-labeled cholesteryl ester ([^3H]CE)]. After incubation, KBr was added, the mixture was adjusted to have a specific density d=1.21 g/mL, subjected to density gradient centrifugation (227,000×g, 4° C., 17 hr) and a fraction of specific density […] was harvested. The obtained fraction was dialyzed against the aforementioned PBS solution to give HDL3 incorporating [^3H]CE ([^3H]CE-HDL3, specific density: 1.125<d<1.21, specific activity: 10,000 dpm/μL), which was used as a donor lipoprotein.
The donor lipoprotein obtained above was added to plasma of healthy subject to prepare a [^3H]CE-HDL3-containing plasma (1,000 dpm/μL). The compound was dissolved in dimethyl formamide. A solution of the compound or a solvent alone (2 μL) and the [^3H]CE-HDL3-containing plasma (100 μL) were added into a microtube, and this was incubated at 37° C. or 4° C. for 4 hr. After ice-cooling, TBS solution [100 μL, 20 mmol/L Tris; 0.15 mol/L NaCl (pH 7.4)] containing 1 mol/L magnesium chloride and 2% dextran sulfate was added to each microtube and the mixture was thoroughly stirred. After keeping at 4° C. for 30 min, the mixture was centrifuged (10,000×g, 4° C., 10 min), and the radioactivity in the obtained supernatant (HDL fraction) was measured with a scintillation counter. […] The concentration of the compound necessary for inhibiting the CETP activity by 50% was calculated as an IC50 value.

Row | Structure (SMILES) | IC50
1 | CCN(CCCCC(=O)O)c1cc2c(cc1CN(Cc1cc(C(F)(F)F)cc(C(F)(F)F)c1)c1ccn(C)n1)CCCC2 [Example 65, 5-[N-(3-{[N′-[3,5-bis(trifluoromethyl)benzyl]-N′-(1-methyl-1H-pyrazol-3-yl)amino]methyl}-5,6,7,8-tetrahydronaphthalen-2-yl)-N-ethylamino]pentanoic acid hydrochloride] | 0.29 µM
2 | CCN(CC1CCCC1)c1cc2c(cc1CN(Cc1cc(C#N)cc(C(F)(F)F)c1)c1nnn(C)n1)CCCC2 [Example 2, 3-{[N-[3-(N′-cyclopentylmethyl-N′-ethylamino)-5,6,7,8-tetrahydronaphthalen-2-ylmethyl]-N-(2-methyl-2H-tetrazol-5-yl)amino]methyl}-5-trifluoromethylbenzonitrile] | 0.08 µM
3 | CCN(CC1CCCC1)c1cc2c(cc1CN(Cc1cc(C(F)(F)F)cc(C(F)(F)F)c1)c1cnn(C)c1)CCC2 [Example 28, N-[3,5-bis(trifluoromethyl)benzyl]-N-[6-(N′-cyclopentylmethyl-N′-ethylamino)indan-5-ylmethyl]-(1-methyl-1H-pyrazol-4-yl)amine hydrochloride] | 0.44 µM
4 | CCN(CC1CCCC1)c1cc2c(cc1CN(Cc1cc(C(F)(F)F)cc(C(F)(F)F)c1)c1cc(C)[nH]n1)CCC2 [Example 7, N-[6-(N′-cyclopentylmethyl-N′-ethylamino)indan-5-ylmethyl]-N-[3,5-bis(trifluoromethyl)benzyl]-(5-methyl-1H-pyrazol-3-yl)amine] | 0.27 µM
5 | CCN(CCC(C)(C)CC(=O)O)c1cc2c(cc1CN(Cc1cc(C(F)(F)F)cc(C(F)(F)F)c1)c1ccn(C)n1)CCC2 [Example 102, 5-[N-(6-{[N′-[3,5-bis(trifluoromethyl)benzyl]-N′-(1-methyl-1H-pyrazol-3-yl)amino]methyl}indan-5-yl)-N-ethylamino]-3,3-dimethylpentanoic acid] | 0.59 µM
6 | CCN(C[C@H]1CC[C@H](C(=O)O)CC1)c1cc2c(cc1CN(Cc1cc(C#N)cc(C(F)(F)F)c1)c1ncn(C)n1)CCCC2 [Example 70, trans-4-{[N-(3-{[N′-(3-cyano-5-trifluoromethylbenzyl)-N′-(1-methyl-1H-[1,2,4]triazol-3-yl)amino]methyl}-5,6,7,8-tetrahydronaphthalen-2-yl)-N-ethylamino]methyl}cyclohexanecarboxylic acid] | 0.54 µM
7 | CCN(CCCCC(=O)O)c1cc2c(cc1CN(Cc1cc(C#N)cc(C(F)(F)F)c1)c1nnn(C)n1)CCCC2 [Example 81, 5-[N-(3-{[N′-(3-cyano-5-trifluoromethylbenzyl)-N′-(2-methyl-2H-tetrazol-5-yl)amino]methyl}-5,6,7,8-tetrahydronaphthalen-2-yl)-N-ethylamino]pentanoic acid hydrochloride] | 0.33 µM
8 | CCN(CC1CCCC1)c1cc2c(cc1CN(Cc1cc(C(F)(F)F)cc(C(F)(F)F)c1)c1nnn(C)n1)CCCC2 [Example 1, N-[3-(N′-cyclopentylmethyl-N′-ethylamino)-5,6,7,8-tetrahydronaphthalen-2-ylmethyl]-N-[3,5-bis(trifluoromethyl)benzyl]-(2-methyl-2H-tetrazol-5-yl)amine] | 0.23 µM

Second part, the molecule after the results:

Row | IC50 | Structure (SMILES)
9 | 0.39 µM | CCN(C[C@H]1CC[C@H](C(=O)O)CC1)c1cc2c(cc1CN(Cc1cc(C#N)cc(C(F)(F)F)c1)c1cc(C)no1)CCCC2 [Example 72, trans-4-{[N-(3-{[N′-(3-cyano-5-trifluoromethylbenzyl)-N′-(3-methylisoxazol-5-yl)amino]methyl}-5,6,7,8-tetrahydronaphthalen-2-yl)-N-ethylamino]methyl}cyclohexanecarboxylic acid hydrochloride]
10 | 0.19 µM | CCN(C[C@H]1CC[C@H](CC(=O)O)CC1)c1cc2c(cc1CN(Cc1cc(C(F)(F)F)cc(C(F)(F)F)c1)c1nnn(C)n1)CCC2 [Example 111, trans-(4-{[N-(6-{[N′-[3,5-bis(trifluoromethyl)benzyl]-N′-(2-methyl-2H-tetrazol-5-yl)amino]methyl}indan-5-yl)-N-ethylamino]methyl}cyclohexyl)acetic acid hydrochloride]
11 | 0.43 µM | CCN(CCCCC(=O)O)c1cc2c(cc1CN(Cc1cc(C(F)(F)F)cc(C(F)(F)F)c1)c1nnn(C)n1)CCCC2 [Example 80, 5-[N-(3-{[N′-[3,5-bis(trifluoromethyl)benzyl]-N′-(2-methyl-2H-tetrazol-5-yl)amino]methyl}-5,6,7,8-tetrahydronaphthalen-2-yl)-N-ethylamino]pentanoic acid hydrochloride]
12 | 0.39 µM | CCN(CC1CCCC1)c1cc2c(cc1CN(Cc1cc(C(F)(F)F)cc(C(F)(F)F)c1)c1noc(C)n1)CCC2 [Example 46, N-[3,5-bis(trifluoromethyl)benzyl]-N-[6-(N′-cyclopentylmethyl-N′-ethylamino)indan-5-ylmethyl]-(5-methyl-[1,2,4]oxadiazol-3-yl)amine hydrochloride]
13 | 0.63 µM | CCN(CC1CCCC1)c1cc2c(cc1CN(Cc1cc(C(F)(F)F)cc(C(F)(F)F)c1)c1nnn(CC)n1)CCC2 [Example 11, N-[3,5-bis(trifluoromethyl)benzyl]-N-[6-(N′-cyclopentylmethyl-N′-ethylamino)indan-5-ylmethyl]-(2-ethyl-2H-tetrazol-5-yl)amine]
14 | 0.75 µM | CCN(CCCCC(=O)OC)c1cc2c(cc1CN(Cc1cc(C#N)cc(C(F)(F)F)c1)c1ccn(C)n1)CCCC2 [Example 64, methyl 5-[N-(3-{[N′-(3-cyano-5-trifluoromethylbenzyl)-N′-(1-methyl-1H-pyrazol-3-yl)amino]methyl}-5,6,7,8-tetrahydronaphthalen-2-yl)-N-ethylamino]pentanoate hydrochloride]
15 | 0.22 µM | CCN(CC1CCCC1)c1ccc(C(F)(F)F)cc1CN(Cc1cc(C#N)cc(C(F)(F)F)c1)c1nnn(C)n1 [Example 34, 3-{[N-[2-(N′-cyclopentylmethyl-N′-ethylamino)-5-trifluoromethylbenzyl]-N-(2-methyl-2H-tetrazol-5-yl)amino]methyl}-5-trifluoromethylbenzonitrile hydrochloride]
16 | 0.23 µM | CCCN(C[C@H]1CC[C@H](C(=O)O)CC1)c1ccc(OC(F)(F)F)cc1CN(Cc1cc(C(F)(F)F)cc(C(F)(F)F)c1)c1nnn(C)n1 [Example 121, trans-4-{[N-(2-{[N′-[3,5-bis(trifluoromethyl)benzyl]-N′-(2-methyl-2H-tetrazol-5-yl)amino]methyl}-4-trifluoromethoxyphenyl)-N-propylamino]methyl}cyclohexanecarboxylic acid hydrochloride]
17 | 0.28 µM | CCN(CC(C)(C)CCCC(=O)O)c1cc2c(cc1CN(Cc1cc(C(F)(F)F)cc(C(F)(F)F)c1)c1nnn(C)n1)CCC2 [Example 120, 6-[N-(6-{[N′-[3,5-bis(trifluoromethyl)benzyl]-N′-(2-methyl-2H-tetrazol-5-yl)amino]methyl}indan-5-yl)-N-ethylamino]-5,5-dimethylhexanoic acid hydrochloride]
18 | 0.715 µM | CCN(CCCCC(=O)O)c1cc2c(cc1CN(Cc1cc(C(F)(F)F)cc(C(F)(F)F)c1)c1ncn(C)n1)CCC2 [Example 58, 5-[N-(6-{[N′-[3,5-bis(trifluoromethyl)benzyl]-N′-(1-methyl-1H-[1,2,4]triazol-3-yl)amino]methyl}indan-5-yl)-N-ethylamino]pentanoic acid hydrochloride]
19 | 0.16 µM | CCN(C[C@H]1CC[C@H](CC(N)=O)CC1)c1cc2c(cc1CN(Cc1cc(C(F)(F)F)cc(C(F)(F)F)c1)c1nnn(C)n1)OC(F)(F)C(F)(F)O2 [Example 138, trans-2-(4-{[N-(7-{[N′-[3,5-bis(trifluoromethyl)benzyl]-N′-(2-methyl-2H-tetrazol-5-yl)amino]methyl}-2,2,3,3-tetrafluoro-2,3-dihydrobenzo[1,4]dioxin-6-yl)-N-ethylamino]methyl}cyclohexyl)acetamide hydrochloride]
